Reference: patent publication US12071671B2 (priority 2018, dated 2024)
Where two headings read alike, the source gives them in different places.

Tests used:
[1] = test system: HMCLs with the low AOX/ROS risk signatures (JJN3, XG-6, XG-19, XG-20, XG-24); assay: HMCL viability, Cell Titer Glo assay, IC50 at 96h (low AOX/ROS risk signature lines); assay type: cell-based, human; details: for IC50: Homo sapiens; for fold higher sensitivity of low AOX/ROS HMCLs as compared to high AOX/ROS HMCLs: ratio of median IC50 at 96h, p<0.003
Experimental: (§1) The HMCLs XG-6, XG-19, XG-20, XG24, JJN3, AMO1, LP1, L363, OPM2 and RPMI8226 were grown in RPMI-1640 supplemented with 10% FBS. XG-6, XG-19, XG-20, XG-24, and LP1 media was supplemented with 2 ng/mL recombinant IL-6. Cells were plated in 96-well plate in 200 μL complete medium. After 24h, cells were treated with increasing concentrations of Melphalan (European Pharmacopeia Reference-Standards, France) or Bortezomib (Axon, Medchem, France) and at day 4 post treatment, the viable cells were assessed using Cell Titer Glo assay (Promega, Madison, WI). The IC50 at 96h were determined using GraphPad Prism software.
(§2) Considering the GEP of 40 HMCLs (Moreaux et al., 2011), HMCLs AOX and ROS risk signatures were determined. The 5 HMCLs with the highest (AMO1, L363, LP1, OPM2, RPMI8266) and the lowest (JJN3, XG-6, XG-19, XG-20, XG-24) AOX/ROS scores were selected to assay Melphalan and Bortezomib sensitivities (Moreaux et al., 2012 and Moreaux et al., 2013).

[2] = test system: CD138+ cells from patients (primary myeloma cells); assay: Primary CD138+ myeloma cells from patient bone marrow samples, flow cytometry with anti-CD138 APC antibody after 5 days; assay type: cell-based, human; details: 5 mM GSH with 10, 20 and 30 μM Melphalan, n=10 patients, p<0.05
Experimental: After 5 days the percentage and absolute number of CD138^+ cells was assessed by flow cytometry using an anti-CD138 APC antibody. * indicates a significant difference using a Student test for pairs (P≤0.05).

[3] = test system: HMCLs with high AOX/ROS risk signatures (AMO1, L363, LP1, OPM2, RPMI8266); assay: HMCL viability, Cell Titer Glo assay, IC50 at 96h (high AOX/ROS risk signature lines); assay type: cell-based; details: Homo sapiens
Experimental: as §1, §2

SMILES | IC50 ([1]; JJN-3, low AOX/ROS HMCLs, 96h, median over 5 cell lines, read-out: Median IC50) [µM] | IC50 ([1]; JJN-3, low AOX/ROS HMCLs, 96h, range over 5 cell lines, read-out: IC50 range) [µM] | fold higher sensitivity of low AOX/ROS HMCLs as compared to high AOX/ROS HMCLs [1] [fold] | protection of primary myeloma cells from melphalan induced apoptosis [2] | IC50 ([1]; JJN-3, 96 h, read-out: IC50 range) [µM] | IC50 ([1]; JJN-3, 96 h, read-out: Median IC50) [µM] | IC50 ([3]; read-out: IC50 range) [µM] | IC50 ([3]; read-out: Median IC50) [µM]
CC(C)C[C@H](NC(=O)[C@H](Cc1ccccc1)NC(=O)c1cnccn1)B(O)O [Bortezomib] | 0.00051 | 0.00027 to 0.00085 | 3.5 | – | – | – | – | –
N[C@@H](CCC(=O)N[C@@H](CS)C(=O)NCC(=O)O)C(=O)O [GSH, glutathione] | – | – | – | significantly protect | – | – | – | –
N[C@@H](Cc1ccc(N(CCCl)CCCl)cc1)C(=O)O [Melphalan] | – | – | 4 | – | 2.25 to 8.34 | 3.11 | 9.02 to 18.7 | 13.7
